# Data published in a melting point compilation (Tetko et al.; mined from patent text by program, amines drawn as free bases though some values may be those of a salt).
row,melting point [°C],SMILES
1,74.9,O=[N+]([O-])c1cc(C(F)(F)F)ccc1NCCO
2,121 to 124,N#CC(Cc1c[nH]cn1)(c1ccccc1)c1ccc(Br)cc1 (stereo unspecified)
3,165 to 167,Cc1cc(C)nc(NC(=NO)NS(=O)(=O)c2ccccc2Cl)n1
4,166 to 168,O=C(O)CC(=O)Nc1ccc2c(c1)c(=O)[nH]c(=O)n2CCCCN1CCC(OC(c2ccccc2)c2ccccc2)CC1
5,122,O=C(O)c1cccc(P(c2ccccc2)c2ccccc2)n1
6,233 to 235,CC1=C(C(=O)OCCO)C(c2cccc([N+](=O)[O-])c2)C2=C(CCCS2(=O)=O)N1 (stereo unspecified)
7,82 to 83,CCOC(=O)c1c(CN(CC)CC)nc2cc(OC)c(OC)cc2c1-c1ccc(Cl)cc1
8,155,O=c1[nH]cc(-c2cc(-c3cnc4ccccc4c3)ccn2)n1-c1ccc(N2CCNCC2)c(C(F)(F)F)c1
9,189 to 190,CN1CCC(=C2c3ccccc3C=Cc3ccc(Br)cc32)CC1
10,149 to 152,NC(=O)Cc1cc(Oc2ccc3c(ccn3C(=O)Nc3ccc(N4CCNCC4)c(C(F)(F)F)c3)c2)ncn1
11,94 to 95,Cc1ccc(C(=O)COc2cc(C)cc(C)c2C)nc1
12,174,CC(C)(C)CC(C)(C)c1cc(Cc2cc(C(C)(C)CC(C)(C)C)cc(C(C)(C)CC(C)(C)C)c2O)c(O)c(-n2nc3ccccc3n2)c1
13,75 to 80,N=C(N)NCCc1ccc(OCCC2Oc3ccccc3N(Cc3cccc4ccccc34)C2=O)cc1 (stereo unspecified)
14,178 to 181,Cc1noc(NS(=O)(=O)c2c(Cc3ccc4c(c3)OCO4)sc3ccccc23)c1Cl
15,98,Clc1ccccc1Cn1ncnc1I
16,73 to 74.5,CCc1cc2cc(OC)c(Cl)c(Cl)c2s1
17,193 to 195,CN1c2ccccc2-c2nc3ccc(Cl)cc3c3cc(OS(=O)(=O)C(F)(F)F)cc1c23
18,137 to 139,COc1cc(COc2cc(N)c(Cl)cc2C(=O)CCCCN2CCCCCC2)cc(OC)c1
19,118 to 120,Cc1oc2ccccc2c(=O)c1N
20,118,O=C(O)c1ccc(OCCNC(=O)C2Cc3ccccc3N2S(=O)(=O)c2ccc(-c3ccc(F)cc3)cc2)c(F)c1 (stereo unspecified)
21,165 to 170,COc1ccccc1C1=NNNN1C(c1ccccc1)(c1ccccc1)c1ccccc1
22,184,NNC(=O)c1[nH]cc(OCc2ccccc2)c(=O)c1Br
23,87 to 103,CCN1CCc2ccc(OC)c(Nc3ncc(Cl)c(Nc4ccc(N5CCOCC5)cc4OC)n3)c2CC1=O
24,102 to 104,CC(C)=CCC/C(C)=C/CSc1nc2cc(Cl)ccc2[nH]1

row,melting point [°C],SMILES
1,205 to 207,O=C1C=C(c2ccc(C(=O)N3Cc4cccn4Cc4ccccc43)cc2)CCC1
2,81,COC1=C(OC)C(=O)C(CCCCCCCCCCCCCCCCCCO)=C(C)C1=O
3,244 to 246,Cc1cccc2c(=O)c(CS(C)(=O)=O)cn(C)c12
4,137 to 140,COc1ccc(NC(=O)c2ccc(N)cc2NC(=O)c2ccc(C(C)(C)C)cc2)cc1
5,220,CCOC(=O)c1cn2c(cc(-c3cccc(Cl)c3)c3cc(C(c4ccc(Cl)cc4)c4nncn4C)ccc32)n1 (stereo unspecified)
6,254 to 256,CNC(=O)c1ccc2c(c1Nc1nc(Nc3ccc4c(c3)CCCC(=O)N4C)ncc1Cl)OCO2
7,149 to 150,CCOC(=O)N1CCN(c2nc(N(C(C)=O)C3CC3)ccc2N)CC1
8,320 to 324,CCn1ccc(=O)c2cnc(-c3ccc(O)cc3)nc21
9,156 to 157,CCN1CC2CCCC2C1CNC(=O)c1cc(Cl)c(NC(C)=O)cc1OC (stereo unspecified)
10,67 to 70,COC(=O)c1cccc([N+](=O)[O-])c1CBr
11,118 to 120,NC(=O)N(O)Cc1cccc(OCCc2csc(-c3ccc(C(F)(F)F)cc3)n2)c1
12,165,CCSc1nccn1-c1ccc(O)cc1
13,> 95,CN1CCC(c2c[nH]c3ccc(CCS(N)(=O)=O)cc23)CC1
14,144 to 146,O=C(O)C(Cc1cccc2c1CCCC2)Cc1cccc2c1CCCC2
15,151 to 153,COc1ccc(N(N=Cc2ccccc2)C(=O)c2ccccc2)cc1
16,280,Nc1nc(-n2cc(C(=O)O)c(=O)c3c(N)c(F)c(F)c(Cl)c32)c(F)cc1F
17,68 to 70,COC(=O)CCCCCCCCCNS(=O)(=O)c1ccc(Cl)cc1
18,148,CC#CCOc1ccc(SC(C(=O)NO)c2ccc3ccccc3c2)cc1 (stereo unspecified)
19,164 to 165,CCOC(=O)c1sc(NC(C)=O)nc1CCl
20,182,COC(=O)C1=C(C)NC(C)=C(C(=O)OCCN2C(=O)c3ccccc3C2=O)C1c1cccc([N+](=O)[O-])c1 (stereo unspecified)
21,280,CCOC(=O)c1ccc2c(c1)C(c1ccc(O)cc1)(c1ccc(O)cc1)c1ccccc1-2
22,82 to 83,COC(=O)NNCc1ccc(Cl)cc1Cl
23,100 to 102,CC(O)(CSc1ccc(S(=O)(=O)c2ccccc2)cc1)C(F)(F)F (stereo unspecified)
24,194 to 197,COc1cc(N2CCN(C3CCN(c4cccc5cccnc45)CC3)CC2)c2ncccc2c1

row,melting point [°C],SMILES
1,105 to 108,N#Cc1cscc1Nc1c(Cl)cccc1Cl
2,150 to 154,CC(=O)Nn1c(-c2ccccc2)nc2cc(C(F)(F)F)ccc21
3,217 to 220,CCCC(C)NC1=NS(=O)(=O)c2cc(Cl)c(Cl)cc2N1 (stereo unspecified)
4,209 to 210,COC(=O)CNC(=O)c1cc(C(=O)OC)c(O)c2ncc(Cc3ccc(F)cc3)cc12
5,270 to 272,NCCc1ccc(CCC(=O)O)cc1
6,249 to 251,CC1(C)COc2ccc(C(=O)Nc3ccc(C(=O)O)cc3)cc2OC1
7,128 to 132,CN(C)Cc1nc(CSCCNC(=C[N+](=O)[O-])NC2CC2)cs1
8,106 to 108,O=C(Cc1ccn(-c2ccc(F)cc2)c1)N1C(=O)OC[C@@H]1Cc1ccccc1
9,154,Cc1ccc(-c2cc(OCC(=O)N3CCSCC3)c3c(C(F)(F)F)cccc3n2)cc1
10,82 to 83,COC(=O)C=C1NC(Cc2ccccc2)COC1=O (stereo unspecified)
11,130 to 132,CC(=O)NNC(=N)C(Cl)(Cl)Cl
12,178,CCOc1cc(C)ccc1C1CCN(CCCCC(=O)Nc2ccc(-c3ccc(C(F)(F)F)cc3)cc2)CC1
13,130 to 135,CCCCn1c(=O)n(CC=C(C)C)c(=O)c2c1ncn2S(=O)(=O)c1ccc(C)cc1
14,133 to 134,CCS(=O)c1nc(-c2ccccc2)c(-c2ccccc2)o1 (stereo unspecified)
15,74 to 76,CC(C)C(NC(=O)OCc1ccccc1)(C(=O)OCc1ccccc1)C1CO1 (stereo unspecified)
16,134 to 135,CC(=O)c1ccc(-c2ccc3c(ccn3Cc3ccccc3)c2)cc1
17,90 to 92,CCOC(=O)Nc1nc(=O)n(CC2CC2)cc1F
18,256 to 258,CCc1cccc2c1[nH]c1c2ccc2cc[nH]c21
19,72,COC(=O)CCCc1cc2nc(C(F)(F)F)ccc2n1S(=O)(=O)c1cccc(OC(F)(F)F)c1
20,69 to 71,CCOC(=O)CCc1ccc2c(c1)CC(CNC(=O)OC(C)(C)C)CC2 (stereo unspecified)
21,134,CC(C)(C)OC(=O)NC(Cc1ccc(C=O)cc1)C(=O)N1CCCC1 (stereo unspecified)
22,140 to 141,CCCCCCCNC(=O)N(C)c1cccc(-c2ccc(CC(OCC)C(=O)O)cn2)c1 (stereo unspecified)
23,245 to 246,CN1CCN(c2ccc(N/C=C3\CN=Cc4ccccc43)cc2)CC1
24,112 to 115,Cc1nc(C)c(Cl)c(NCc2nccc(SCCCSCCSc3ncccn3)c2C)n1

row,melting point [°C],SMILES
1,85 to 87,Cc1cccc2c1nc(COc1ccc(Cl)cc1)n2CCC(C)CN1CCCC1 (racemic)
2,167 to 170,NC(=O)C(c1ccc(C(=O)O)cc1)C(CCc1ccccc1)c1ccccc1N1CCCCC1 (stereo unspecified)
3,169 to 171,O=c1[nH]c(=O)n(CCCCN2CCC(OC(c3ccccc3)c3ccccc3)CC2)c2cc(Cl)ccc12
4,84 to 86,CCCCN(CCCC)S(=O)(=O)c1ccc(-n2oc(C)cc2=O)c([N+](=O)[O-])c1
5,127 to 128,O=C(c1ccc(F)cc1)c1cccc(C#Cc2ccc(F)cc2)c1
6,184 to 187,COCCc1nc2c(N)nc3ccccc3c2n1CCOCCNC(=O)c1ccccc1
7,245,O=C(O)c1cn(C2CC2)c2nc3cc(N4CCNC(c5cccs5)C4)c(F)cc3cc2c1=O (racemic)
8,50 to 51,OCCCc1cnoc1-c1ccc(OC(F)(F)F)cc1
9,94 to 95,Cn1cc(Br)nc(Br)c1=O
10,254 to 255,Cc1cc(CNC(=O)c2cc(N3CCN(Cc4ccc(F)cc4)C3=O)n[nH]2)n[nH]1
11,115 to 116,[O-][N+]1=C(c2ccccc2Cl)c2ccccc2C=CC1
12,153 to 154,CCCCCCC#CC(O)C1=Nc2ccc(F)cc2C(=O)C1C (stereo unspecified)
13,113,COc1c(Cl)cc(NC(C)=O)c(OC)c1N
14,63 to 64,OCCCc1nc(COc2ccc(CCCn3ccnc3)cc2)co1
15,204,O=C(O)c1ccc(C2(F)CC2c2ccc(Cl)cc2)cc1 (stereo unspecified)
16,165 to 168,CNC(=NC#N)NCCCCc1csc(NC(=N)N)n1
17,229 to 230,O=C(O)C1=C(c2ccc3c(c2)OCO3)c2ccccc2S(=O)(=O)N1Cc1ccc2c(c1)OCO2
18,114 to 118,CN(CCCCCCC(=O)O)c1cnc(-c2ccccc2)c(-c2ccccc2)n1
19,222 to 223,CN(C)S(=O)(=O)c1ccc(Oc2ccc([N+](=O)[O-])cc2C#N)cc1
20,197,CCCC1=NN(c2ccc(C#N)cc2)C(=O)C1=CNc1ccccc1CC
21,204 to 213,CNC1CN(c2c(F)c(N)c3c(=O)c(C(=O)O)cn(-c4nc(N)c(F)cc4F)c3c2Cl)C1

row,SMILES,melting point [°C]
1,O=C(NC1C2CC3CC(C2)CC1C3)c1cc(-c2ccc(Cl)cc2)n(-c2ccc(Cl)cc2Cl)n1 (stereo unspecified),203
2,COc1ccc(C2(c3ccc(OC)cc3)CCN(CC[C@H]3CN(C)[C@@H]4Cc5c[nH]c6cccc(c56)[C@@]4(OC)C3)CC2)cc1,129 to 136
3,OCc1snc(Cl)c1Cl,94 to 95
